From US20250177393A1, “MODULATORS OF MYC FAMILY PROTO-ONCOGENE PROTEIN” (Nalo Therapeutics, priority 2022, published 2025)
Like-named read-outs stand apart in the source and are kept apart here.

What was measured:
MycC = target: T1, MycC (Homo sapiens, UniProt P01106); test: Degradation of MycC protein in L363 cells (JESS/Western blot); format: cell-based; settings: for Dmax at 3 µM: read-out: % Degradation of MycC (L-363) 24 h, 3 μM; for Dmax at 6 µM: read-out: % Degradation of MycC (L-363) 24 h, 6 μM; for Dmax at 1 µM: read-out: % Degradation of MycC (L-363) 24 h, 1 μM; for Dmax at 0.5 µM: read-out: % Degradation of MycC (L-363) 24 h, 0.5 μM
T1 construct: endogenous in cells; host or cells: L363
T1 sequence (P01106 whole entry): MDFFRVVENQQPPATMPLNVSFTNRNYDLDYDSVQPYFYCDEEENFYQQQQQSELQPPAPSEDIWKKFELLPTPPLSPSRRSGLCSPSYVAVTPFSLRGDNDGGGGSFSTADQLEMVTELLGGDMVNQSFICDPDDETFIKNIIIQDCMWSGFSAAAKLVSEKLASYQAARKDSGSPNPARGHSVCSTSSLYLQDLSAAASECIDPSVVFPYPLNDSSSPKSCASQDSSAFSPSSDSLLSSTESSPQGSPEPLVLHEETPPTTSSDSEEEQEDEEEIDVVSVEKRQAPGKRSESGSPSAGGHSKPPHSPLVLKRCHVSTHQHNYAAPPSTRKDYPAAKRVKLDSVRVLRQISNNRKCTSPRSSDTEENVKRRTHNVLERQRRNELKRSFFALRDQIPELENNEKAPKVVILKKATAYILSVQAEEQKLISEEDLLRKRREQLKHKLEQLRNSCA
Procedure: (§1) For L363 cells (suspension), 1E6 cells were plated into each well of a 6 well plate. For SK—N-BE(2) cells (adherent), 5E5 cells were plated into each well of a 6 well dish. […] All compounds were diluted to 10 mM in DMSO. Cells were treated with the compound for 24 hrs, then for both cell types, media containing cells were removed from wells into a 15 ml centrifuge tube, and remaining adherent SK—N-BE(2) cells were also scraped from the wells into the appropriate tubes. Tubes were centrifuged, cells were washed with PBS then re-centrifuged to pellet cells. A RIPA buffer cocktail was added to the cells on ice for 5 mins. Cell lysates were clarified by centrifugation and stored at −80 degrees until required. BCA assay was performed on each lysate to determine the protein concentration. For validation studies of antibodies, lysates and antibodies were used at a number of concentrations (Lysates: 2, 1, 0.2 mg/ml; Antibodies: 1 in 50, 1 in 200 dilution). Once an appropriate lysate concentration and antibody concentration was determined, samples were screened in the JESS technology (Protein Simple, San Jose, CA—https://www.proteinsimple.com/jess.html). Target protein antibodies (n-myc and c-myc) were detected in the chemiluminescence channel and loading controls (tubulin and GAPDH) were detected using a Near Infra Red (NIR) labeled secondary antibody. For SK—N-EB2 adherent cells, 5E5 cells in 1.9 mls media were plated into 6 well dishes and incubated for 24 hrs. […] Cells were scrapped off the plate, centrifuged, washed with PBS, centrifuged, then a RIPA buffer cocktail added to the cells (100 ul), centrifuged and stored at −80 for later analysis. For L363 suspension cells, 1E6 cells were plated into 24 well dishes (950 ul media) and incubated for 24 hrs. […] Cells were aspirated into tubes, centrifuged, washed with PBS, centrifuged, then a RIPA buffer cocktail added to the cells (100 ul), centrifuged and stored at −80 for later analysis. For Western blot, a BCA (total protein) assay was run on all samples, these were then run in batches of 5 compounds plus control (DMSO) on each Western blot run—n-myc and c-myc were run in separate experiments in the chemiluminescence channel. Both tubulin and GAPDH were run as loading controls in all lanes in the near infra red channel.

MycN = target: T2, MycN (Homo sapiens, UniProt P04198); test: Degradation of MycN protein in SK-N-BE(2) cells (JESS/Western blot); format: cell-based; settings: for Dmax at 0.5 µM: read-out: % Degradation of MycN (SKNBE2) 24 h, 0.5 μM; for Dmax at 1 µM: read-out: % Degradation of MycN (SKNBE2) 24 h, 1 μM; for Dmax at 3 µM: read-out: % Degradation of MycN (SKNBE2) 24 h, 3 μM; for Dmax at 6 µM: read-out: % Degradation of MycN (SKNBE2) 24 h, 6 μM
T2 construct: endogenous in cells; host or cells: SK-N-BE(2)
T2 sequence (P04198 1-464): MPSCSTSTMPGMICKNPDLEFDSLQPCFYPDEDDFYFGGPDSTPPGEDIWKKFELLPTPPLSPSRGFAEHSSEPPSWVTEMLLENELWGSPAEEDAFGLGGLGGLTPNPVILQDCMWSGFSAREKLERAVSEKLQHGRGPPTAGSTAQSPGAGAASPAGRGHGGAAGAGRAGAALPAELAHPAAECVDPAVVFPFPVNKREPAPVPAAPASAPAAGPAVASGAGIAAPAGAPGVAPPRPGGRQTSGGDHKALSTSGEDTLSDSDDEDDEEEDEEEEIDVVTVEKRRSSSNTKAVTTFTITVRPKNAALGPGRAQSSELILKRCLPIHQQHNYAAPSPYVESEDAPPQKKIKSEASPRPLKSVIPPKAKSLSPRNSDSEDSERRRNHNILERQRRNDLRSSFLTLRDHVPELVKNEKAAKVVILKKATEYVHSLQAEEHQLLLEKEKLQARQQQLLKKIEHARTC
Procedure: as §1

Row | Compound | Dmax at 3 µM (MycC; L-363 cells, 24 h, 3 μM) [%] | Dmax at 6 µM (MycC; L-363 cells, 24 h, 6 μM) [%] | Dmax at 0.5 µM (MycN; SKNBE2 cells, 24 h, 0.5 μM) [%] | Dmax at 1 µM (MycN; SKNBE2 cells, 24 h, 1 μM) [%] | Dmax at 3 µM (MycN; SKNBE2 cells, 24 h, 3 μM) [%] | Dmax at 6 µM (MycN; SKNBE2 cells, 24 h, 6 μM) [%] | Dmax at 1 µM (MycC; L-363 cells, 24 h, 1 μM) [%] | Dmax at 0.5 µM (MycC; L-363 cells, 24 h, 0.5 μM) [%] | Dmax at 0.5 µM (MycN; SKNBE2, 24 h) [%] | Dmax at 1 µM (MycN; SKNBE2, 24 h) [%] | Dmax at 3 µM (MycN; SKNBE2, 24 h) [%] | Dmax at 6 µM (MycN; SKNBE2, 24 h) [%] | Dmax at 0.5 µM (MycC; L-363, 24 h) [%] | Dmax at 1 µM (MycC; L-363, 24 h) [%] | Dmax at 3 µM (MycC; L-363, 24 h) [%] | Dmax at 6 µM (MycC; L-363, 24 h) [%]
1 | CN(CC12CNC(C1)C2)c1nccc(Nc2cc(C3CC3)[nH]n2)n1 [Compound 2, N^2-((2-Azabicyclo[2.1.1]hexan-4-yl)methyl)-N^4-(5-cyclopropyl-1H-pyrazol-3-yl)-N^2-methylpyrimidine-2,4-diamine] |  |  | 20 to 49 | < 20 | 20 to 49 | 50 to 79 |  |  |  |  |  |  |  |  |  | 
2 | c1cc(Nc2cc(C3CC3)[nH]n2)nc(NCC23CNC(C2)C3)n1 [Compound 3, N^2-((2-Azabicyclo[2.1.1]hexan-4-yl)methyl)-N^4-(5-cyclopropyl-1H-pyrazol-3-yl)pyrimidine-2,4-diamine] |  |  |  |  |  |  |  |  | < 20 | < 20 | < 20 | 20 to 49 |  |  |  | 
3 | CN1CC2(CNc3nccc(Nc4cc(C5CC5)[nH]n4)n3)CC1C2 [Compound 4, N^4-(5-Cyclopropyl-1H-pyrazol-3-yl)-N^2-((2-methyl-2-azabicyclo[2.1.1]hexan-4-yl)methyl)pyrimidine-2,4-diamine] | 20 to 49 | < 20 |  |  | < 20 | 20 to 49 | < 20 |  |  |  |  |  |  |  |  | 
4 | c1cc(Nc2cc(C3CC3)[nH]n2)nc(NC2CC3(CNC3)C2)n1 [Compound 28, N^4-(5-cyclopropyl-1H-pyrazol-3-yl)-N^2-(2-azaspiro[3.3]heptan-6-yl)pyrimidine-2,4-diamine] | < 20 | 20 to 49 |  |  |  | < 20 | < 20 | < 20 |  |  |  |  |  |  |  | 
5 | c1cc(Nc2cc(C3CCCC3)[nH]n2)nc(NC2CC3(CNC3)C2)n1 [Compound 30, N^4-(5-cyclopentyl-1H-pyrazol-3-yl)-N^2-(2-azaspiro[3.3]heptan-6-yl)pyrimidine-2,4-diamine] | 80 to 100 | 80 to 100 | < 20 | < 20 |  | 50 to 79 | 80 to 100 | 80 to 100 |  |  |  |  |  |  |  | 
6 | CN1CCC(Nc2nccc(Nc3cc(C4CCCC4)[nH]n3)n2)CC1 [Compound 31] |  |  |  |  |  |  |  |  | < 20 |  | 80 to 100 | 80 to 100 | 50 to 79 | 50 to 79 | 80 to 100 | 80 to 100
7 | c1cc(Nc2cc(C3CC3)[nH]n2)nc(NC2CCC3(CC2)CNC3)n1 [Compound 33, N^4-(5-Cyclopropyl-1H-pyrazol-3-yl)-N^2-(2-azaspiro[3.5]nonan-7-yl)pyrimidine-2,4-diamine] | 20 to 49 | 80 to 100 | 20 to 49 | 20 to 49 | 80 to 100 | 80 to 100 | < 20 |  |  |  |  |  |  |  |  | 
8 | CN1CC2(CC(Nc3nccc(Nc4cc(C5CC5)[nH]n4)n3)C2)C1 [Compound 36, N^4-(5-cyclopropyl-1H-pyrazol-3-yl)-N^2-(2-methyl-2-azaspiro[3.3]heptan-6-yl)pyrimidine-2,4-diamine] | 20 to 49 | 50 to 79 | < 20 | < 20 | 20 to 49 | 80 to 100 | 50 to 79 | 20 to 49 |  |  |  |  |  |  |  | 

The next lines start with results.

Row | Dmax at 3 µM (MycC; L-363 cells, 24 h, 3 μM) [%] | Dmax at 6 µM (MycC; L-363 cells, 24 h, 6 μM) [%] | Dmax at 0.5 µM (MycN; SKNBE2 cells, 24 h, 0.5 μM) [%] | Dmax at 1 µM (MycN; SKNBE2 cells, 24 h, 1 μM) [%] | Dmax at 3 µM (MycN; SKNBE2 cells, 24 h, 3 μM) [%] | Dmax at 6 µM (MycN; SKNBE2 cells, 24 h, 6 μM) [%] | Dmax at 1 µM (MycC; L-363 cells, 24 h, 1 μM) [%] | Dmax at 0.5 µM (MycC; L-363 cells, 24 h, 0.5 μM) [%] | Compound | Dmax at 0.5 µM (MycN; SKNBE2, 24 h) [%] | Dmax at 1 µM (MycN; SKNBE2, 24 h) [%] | Dmax at 3 µM (MycN; SKNBE2, 24 h) [%] | Dmax at 6 µM (MycN; SKNBE2, 24 h) [%] | Dmax at 0.5 µM (MycC; L-363, 24 h) [%] | Dmax at 1 µM (MycC; L-363, 24 h) [%] | Dmax at 3 µM (MycC; L-363, 24 h) [%] | Dmax at 6 µM (MycC; L-363, 24 h) [%]
9 | < 20 | < 20 | 20 to 49 | < 20 | 20 to 49 | 80 to 100 |  |  | CN1CCC(CNc2nccc(Nc3cc(C4CCCC4)[nH]n3)n2)CC1 [Compound 1] |  |  |  |  |  |  |  | 
10 | 80 to 100 | 80 to 100 | 80 to 100 | 80 to 100 | 80 to 100 | 80 to 100 | 80 to 100 | 80 to 100 | CN1CC2(CCC(Nc3nccc(Nc4cc(C5CCCC5)[nH]n4)n3)CC2)C1 [Compound 20, N^4-(5-Cyclopentyl-1H-pyrazol-3-yl)-N^2-(2-methyl-2-azaspiro[3.5]nonan-7-yl)pyrimidine-2,4-diamine] |  |  |  |  |  |  |  | 
11 | 80 to 100 | 80 to 100 |  | < 20 | 80 to 100 | 80 to 100 | 80 to 100 | 50 to 79 | c1cc(Nc2cc(C3CC3)[nH]n2)nc(NC2CCNCC2)n1 [Compound 29] |  |  |  |  |  |  |  | 
12 | 80 to 100 | 80 to 100 |  | 50 to 79 | 80 to 100 | 80 to 100 | 50 to 79 | 50 to 79 | c1cc(Nc2cc(C3CCCC3)[nH]n2)nc(NC2CCNCC2)n1 [Compound 32, N^4-(5-cyclopentyl-1H-pyrazol-3-yl)-N^2-(piperidin-4-yl)pyrimidine-2,4-diamine] |  |  |  |  |  |  |  | 
13 | 80 to 100 | 80 to 100 | 80 to 100 | 80 to 100 | 80 to 100 | 80 to 100 | 50 to 79 | < 20 | CN1CC2(CCC(Nc3nccc(Nc4cc(C5CC5)[nH]n4)n3)CC2)C1 [Compound 34, N^4-(5-cyclopropyl-1H-pyrazol-3-yl)-N^2-(2-methyl-2-azaspiro[3.5]nonan-7-yl)pyrimidine-2,4-diamine] |  |  |  |  |  |  |  | 
14 | < 20 | < 20 | 20 to 49 | < 20 | 20 to 49 | 20 to 49 |  |  | CN1CCC(C(=O)Nc2nccc(Nc3cc(C4CC4)[nH]n3)n2)CC1 [Compound 35, N-(4-((5-cyclopropyl-1H-pyrazol-3-yl)amino)pyrimidin-2-yl)-1-methylpiperidine-4-carboxamide] |  |  |  |  |  |  |  | 
15 | 20 to 49 | < 20 |  | < 20 | 20 to 49 | 20 to 49 |  |  | Cn1cc(C(=O)N2CCC(Nc3nccc(Nc4cc(C5CC5)[nH]n4)n3)CC2)nn1 [Compound 37, (4-((4-((5-Cyclopropyl-1H-pyrazol-3-yl)amino)pyrimidin-2-yl)amino)piperidin-1-yl)(1-methyl-1H-1,2,3-triazol-4-yl)methanone] |  |  |  |  |  |  |  | 
16 | 20 to 49 | 50 to 79 | 20 to 49 | 50 to 79 | 80 to 100 | 80 to 100 | 50 to 79 | 20 to 49 | CN1CC2(CC(Nc3nccc(Nc4cc(C5CCCC5)[nH]n4)n3)C2)C1 [Compound 38, N^4-(5-cyclopentyl-1H-pyrazol-3-yl)-N^2-(2-methyl-2-azaspiro[3.3]heptan-6-yl)pyrimidine-2,4-diamine] |  |  |  |  |  |  |  | 
17 |  |  |  | 20 to 49 | 20 to 49 | 50 to 79 |  |  | CN1CC[C@@H](Nc2nccc(Nc3cc(C4CC4)[nH]n3)n2)[C@@H](F)C1 [Compound 42, N4-(5-Cyclopropyl-1H-pyrazol-3-yl)-N2-[(3S,4R)-3-fluoro-1-methyl-4-piperidyl]pyrimidine-2,4-diamine] |  |  |  |  |  |  |  | 
